# Source: patent US9994515B2, “Aryl naphthyl methanone oxime(s) and process for preparation thereof” (Council of Scientific & Industrial Research, priority 2013, dated 2018)
# pIC50: −log10 of the molar value. Counter-ions that a name gives are not always drawn. Like-named read-outs stand apart in the source and are kept apart here.
# What was measured:
# Ishikawa = assay: MTT assay in Ishikawa endometrial adenocarcinoma cells; format: cell-based; details: Homo sapiens, Ishikawa, Table 6, 48 h, 10 point dose response
# MDA-MB231 = assay: MTT assay in MDA-MB-231 breast tumor cells; format: cell-based; details: Homo sapiens, MDA-MB-231, Table 6, 48 h, 10 point dose response
# HL60 = assay: MTT cytotoxicity assay in HL-60 cells; format: cell-based
# MCF-7 = assay: MTT assay in MCF-7 breast tumor cells; format: cell-based; details: Homo sapiens, MCF7, Table 6, 48 h, 10 point dose response
# K562 = assay: MTT cytotoxicity assay in K562 cells; format: cell-based
# NIH3T3 = assay: MTT cytotoxicity assay in NIH3T3 fibroblasts; format: cell-based, mouse
# Experimental: (§1) To consider a molecule as a candidate compound in cancer drug therapy, the test compound must have specific cytotoxicity towards the cancer cells without affecting normal cell growth. Therefore, all active compounds were assessed for toxicity in non-cancer cell-lines: mouse fibroblast cell line (NIH3T3) and monkey kidney epithelial cells (Vero). […] Therefore, based on safety index ([…]), 5d [Centans; based on IUPAC name prefixed with Central Drug Research Institute's signature (Cent)] was selected as a lead compound.
# DU-145 = assay: MTT assay in DU-145 prostate tumor cells; format: cell-based; details: Homo sapiens, DU-145, Table 6, 48 h, 10 point dose response
# U937 = assay: Cytotoxicity in U937 cells; format: cell-based
# Vero = assay: Cytotoxicity in Vero kidney epithelial cells; format: cell-based, monkey; details: Primates, Vero; Table 2; normal cell line
# Experimental: as §1
# Kasumi 1 = assay: Cytotoxicity in Kasumi 1 cells; format: cell-based
# [1] = tested on: PBMCs isolated from healthy individuals; assay: MTT cytotoxicity in PBMCs from healthy controls; details: 1 μM, 48 h; for % cell death, Average: healthy control, average of C1-C3
# [2] = Homo sapiens, HL-60, 48 h, Table 1, MTT assay after 48 h treatment
# [3] = Homo sapiens, K562, 48 h, Table 1, MTT assay after 48 h treatment
# [4] = Mus musculus, NIH3T3, 48 h, Table 1, MTT assay after 48 h treatment
# [5] = Homo sapiens, Kasumi 1, Table 2
# [6] = Mus musculus, NIH3T3, Table 2, normal cell line
# [7] = Table 1, MTT assay after 48 h treatment, fumarate
SMILES,pIC50 (Ishikawa),pIC50 (MDA-MB231),pIC50 (MCF-7),pIC50 (DU-145),pIC50 (HL60; [2]),pIC50 (K562; [3]),pIC50 (NIH3T3; [4]),further results
"CSc1ccc(/C(=N/O)c2cccc3ccccc23)cc1 [Compound 4a, (4-(methylthio)phenyl)(naphthalen-1-yl)methanone oxime]",< 4.30,4.70,4.74,< 4.30,< 4.30,< 4.30,< 4.30,melting point: 135 °C
"CSc1ccc(/C(=N/OCCN2CCCCC2)c2cccc3ccccc23)cc1 [Compound 5a, (4-(methylthio)phenyl)(naphthalen-1-yl)methanone O-2-(piperidin-1-yl)ethyl oxime oxalate]",5.00,5.06,4.87,5.00,< 4.70,5.24,4.82,"pIC50 (U937; Homo sapiens, U-937, Table 2): < 4.74; pIC50 (HL60; Homo sapiens, HL-60, Table 2): < 4.70; pIC50 (Vero): < 4.60; pIC50 (Kasumi 1; [5]): 4.57; pIC50 (K562; Homo sapiens, K562, Table 2): 5.24; pIC50 (NIH3T3; [6]): 4.82"
"CSc1ccc(/C(=N/OCCN2CCCC2)c2cccc3ccccc23)cc1 [Compound 5b, (4-(methylthio)phenyl)(naphthalen-1-yl)methanone O-2-(pyrrolidin-1-yl)ethyl oxime oxalate]",5.22,5.30,5.18,5.02,4.72,4.60,4.70,–
"CSc1ccc(/C(=N/OCCN(C)C)c2cccc3ccccc23)cc1 [Compound 5c, (4-(methylthio)phenyl)(naphthalen-1-yl)methanone O-2-(dimethylamino)ethyl oxime oxalate]",5.05,4.89,4.85,4.82,< 4.30,< 4.30,< 4.30,–
"CSc1ccc(/C(=N/OCCN2CCOCC2)c2cccc3ccccc23)cc1 [Compound 5f, (4-(methylthio)phenyl)(naphthalen-1-yl)methanone O-2-morpholinoethyl oxime]",< 4.30,< 4.30,< 4.30,< 4.30,< 4.30,< 4.60,4.59,–
"CCN(CC)CCO/N=C(/c1ccc(SC)cc1)c1cccc2ccccc12 [Compound 5j, (4-(methylthio)phenyl)(naphthalen-1-yl)methanone O-2-(diethylamino)ethyl oxime fumarate]",–,–,–,–,–,–,–,"pIC50 (U937; Table 2, fumarate): < 4.62; pIC50 (HL60; [7]): 5.00; pIC50 (HL60; Table 2, fumarate): 5.00; pIC50 (Kasumi 1; Table 2, fumarate): 4.70; pIC50 (K562; [7]): 5.07; pIC50 (K562; Table 2, fumarate): 5.07; pIC50 (NIH3T3; [7]): 4.60; pIC50 (NIH3T3; Table 2, normal cell line, fumarate): 4.60"
"CSc1ccc(/C(=N/OCCCN(C)C)c2cccc3ccccc23)cc1 [Compound 5m, (4-(methylthio)phenyl)(naphthalen-1-yl)methanone O-3-(dimethylamino)propyl oxime oxalate]",5.15,5.14,5.10,5.02,5.11,5.32,< 4.60,"pIC50 (U937; Homo sapiens, U-937, Table 2): < 4.82; pIC50 (HL60; Homo sapiens, HL-60, Table 2): 5.11; pIC50 (Vero): < 4.60; pIC50 (Kasumi 1; [5]): < 5.00; pIC50 (K562; Homo sapiens, K562, Table 2): 5.32; pIC50 (NIH3T3; [6]): < 4.60"
Cc1nc(Nc2ncc(C(=O)Nc3c(C)cccc3Cl)s2)cc(N2CCN(CCO)CC2)n1 [Dasatinib],–,–,–,–,–,–,–,"pIC50 (HL60; Homo sapiens, HL-60, 48 h, Table 3, MTT, 48 h, 10 point dose response, read-out: IC 50 HL 60): 5.16; % cell death ([1]; healthy control sample C1): 2.39%; % cell death ([1]; healthy control sample C2): 12.03%; % cell death ([1]; healthy control sample C3): 18.93%; % cell death, Average [1]: 11.12%; pIC50 (K562; Homo sapiens, K562, 48 h, Table 3, MTT, 48 h, 10 point dose response, read-out: IC 50 K562): 5.17"
Cc1ccc(NC(=O)c2ccc(CN3CCN(C)CC3)cc2)cc1Nc1nccc(-c2cccnc2)n1 [Imatinib],–,–,–,–,–,–,–,"% cell death ([1]; healthy control sample C1): 10.51%; % cell death, Average [1]: 16.12%"

# Further lines, with some results ahead:
pIC50 (Ishikawa),pIC50 (MDA-MB231),pIC50 (MCF-7),pIC50 (DU-145),SMILES,pIC50 (HL60; [2]),pIC50 (K562; [3]),pIC50 (NIH3T3; [4]),further results
< 4.30,< 4.30,4.74,< 4.30,"COc1ccc(/C(=N/OCCN2CCCCC2)c2cccc3ccccc23)cc1 [Compound 6a, (4-methoxyphenyl)(naphthalen-1-yl)methanone O-2-(piperidin-1-yl)ethyl oxime oxalate]",< 4.30,< 4.30,< 4.30,–
< 4.30,< 4.30,4.60,< 4.30,"COc1ccc(/C(=N/OCCN2CCCC2)c2cccc3ccccc23)cc1 [Compound 6b, (4-methoxyphenyl)(naphthalen-1-yl)methanone O-2-(pyrrolidin-1-yl)ethyl oxime oxalate]",< 4.30,< 4.30,< 4.30,–
< 4.30,< 4.30,4.82,< 4.30,"COc1ccc(/C(=N/OCCN(C)C)c2cccc3ccccc23)cc1 [Compound 6c, (4-methoxyphenyl)(naphthalen-1-yl)methanone O-2-(dimethylamino)ethyl oxime oxalate]",< 4.30,< 4.30,< 4.30,–
< 4.30,< 4.30,4.70,< 4.30,"CCN(CC)CCO/N=C(/c1ccc(OC)cc1)c1cccc2ccccc12 [Compound 6d, (4-methoxyphenyl)(naphthalen-1-yl)methanone O-2-(diethylamino)ethyl oxime oxalate]",< 4.30,< 4.30,< 4.30,–
< 4.30,< 4.30,4.64,< 4.30,"COc1ccc(/C(=N/OCCN(C(C)C)C(C)C)c2cccc3ccccc23)cc1 [Compound 6e, (4-methoxyphenyl)(naphthalen-1-yl)methanone O-2-(diisopropylamino)ethyl oxime oxalate]",< 4.30,< 4.30,< 4.30,–
< 4.30,< 4.30,4.69,< 4.30,"COc1ccc(/C(=N/OCCCN(C)C)c2cccc3ccccc23)cc1 [Compound 6i, (4-methoxyphenyl)(naphthalen-1-yl)methanone O-3-(dimethylamino)propyl oxime oxalate]",< 4.30,< 4.30,< 4.30,–
4.92,4.70,5.30,4.82,"CSc1ccc(/C(=N/OCCCN2CCCCC2)c2cccc3ccccc23)cc1 [Compound 7a, (4-(methylthio)phenyl)(naphthalen-1-yl)methanone O-3-(piperidin-1-yl)propyl oxime oxalate]",< 4.30,< 4.70,< 4.30,–
< 4.30,< 4.30,< 4.30,< 4.30,"CSc1ccc(/C(=N/OCCCN2CCOCC2)c2cccc3ccccc23)cc1 [Compound 7b, (4-(methylthio)phenyl)(naphthalen-1-yl)methanone O-3-morpholinopropyl oxime]",< 4.30,< 4.30,< 4.30,melting point: 89 °C
< 4.30,4.70,5.19,5.00,"CSc1ccc(/C(=N/OCCCN2CCC(C)CC2)c2cccc3ccccc23)cc1 [Compound 7c, (4-(methylthio)phenyl)(naphthalen-1-yl)methanone O-3-(4-methylpiperidin-1-yl)propyl oxime oxalate]",< 4.30,5.24,4.68,"pIC50 (U937; Homo sapiens, U-937, Table 2): < 4.60; pIC50 (HL60; Homo sapiens, HL-60, Table 2): < 4.30; pIC50 (Vero): < 4.60; pIC50 (Kasumi 1; [5]): 4.72; pIC50 (K562; Homo sapiens, K562, Table 2): 5.24; pIC50 (NIH3T3; [6]): 4.68"
4.74,4.74,5.10,5.12,"CSc1ccc(/C(=N/OCCCCN2CCCCC2)c2cccc3ccccc23)cc1 [Compound 8a, (4-(methylthio)phenyl)(naphthalen-1-yl)methanone O-4-(piperidin-1-yl)butyl oxime]",4.80,5.20,4.70,–
< 4.30,< 4.30,< 4.30,< 4.30,"CSc1ccc(/C(=N/OCCCCN2CCCC2)c2cccc3ccccc23)cc1 [Compound 8b, (4-(methylthio)phenyl)(naphthalen-1-yl)methanone O-4-(pyrrolidin-1-yl)butyl oxime]",< 4.30,< 4.30,< 4.30,–
